For data set [1], the system named is hESC-derived cells. Briefly: Albumin secretion, ELISA. The data set is classed as cell-based, human. How it is done: The levels of albumin (ALB) secreted by hESC-derived monolayer and aggregate populations, as well as by HepG2 cells, Huh7 cells and cryopreserved hepatocytes (PH, lot OSI) was detected using an ELISA assay. […] Only low levels were detected in HepG2, Huh7 and PH cells. By contrast, the capacity to take up indocyanine green (ICG), a characteristic of adult hepatocytes (Stieger et al., 2012) was enhanced by cAMP signaling. ICG uptake and release by cAMP-treated and non-treated was measured in day 44 aggregates.

Data set [2] has as its system hESC-derived hepatic aggregates. The source says:
To further mature the cells, the role of cAMP signaling was investigated. Studies using hepatic cell lines have shown that activation of this pathway can induce hepatic gene expression, in part through the induction of the peroxisome proliferator-activated receptor gamma coactivator-1-alpha (PGC1-a), a coactivator that functions together with HNF4a to regulate the expression of many genes involved in hepatocyte function 25 28. […] The proportion of ALB positive cells was not reduced in spite of the fact that the levels of mRNA declined (FIG. 5b). Without being bound by theory, these differences could reflect differences in RNA vs. protein expression. Other tissues, such as the pancreas, also express PGC-1a.
HPSCs were maintained on irradiated mouse embryonic feeder cells in hESC media consisting of DEME/F12 (50:50; Gibco) supplemented with 20% Knock-out serum replacement (KSR) as described previously^44. Prior to the generation of embryoid bodies (EBs), hESCs were passaged onto Matrigel™-coated plates for 1 day to deplete the population of feeder cells. […] At day 1, the EBs were harvested and re-cultured in induction medium A that consisted of StemPRO-34® supplemented with glutamine (2 mM), ascorbic acid ([…]; Sigma), MTG ([…]; Sigma), basic fibroblast growth factor (bFGF; 2.5 ng/ml), activin A (100 ng/ml), Wnt3a (25 ng/ml) and BMP4 (0.25 ng/ml) for 3 days. On day 4, the EBs were harvested and re-cultured in StemPRO-34® supplemented with bFGF (10 ng/ml), activin A (100 ng/ml), Wnt3a (25 ng/ml) and BMP4 (0.25 ng/ml) (medium B). EBs were harvested at day 6, dissociated to single cells and the cells cultured for 2 days on Matrigel™-coated 12 well plates at a concentration of 4×10^5 cells in media B without Wnt3A and with activin A at a concentration of 50 ng/ml. At day 8, medium B was replaced with hepatic specification media that consisted of Iscove's Modified Dulbecco's Medium (IMDM) supplement with 1% vol/vol B27 supplement (Invitrogen: A11576SA), ascorbic acid, MTG, FGF10 (50 ng/ml) (from day 8 to day 10), bFGF (20 ng/ml) (from day 10 to day 14), and BMP4 (50 ng/ml). Media was changed every 2 days from day 8 to day 14. To promote maturation of HES2-derived hepatic cells, they were cultured in maturation media A for 12 days. Maturation media A consisted of IMDM with 1% vol/vol B27 supplement, ascorbic acid, Glutamine, MTG, Hepatocyte growth factor (HGF) (20 ng/ml), Dexamethasone Dex) (40 ng/ml) and Oncostatin M (20 ng/ml). Aggregates were generated from the population at day 26 of culture. To generate aggregates the cells were dissociated with collagenase and TrypleLE and then cultured in six well ultra-low cluster dishes at a concentration of 6×10^5 cells per well in maturation medium A supplemented with Rho-kinase inhibitor and 0.1% BSA. Aggregates were maintained under these conditions until day 32, with media changes every 3 days. […] Media was changed every 3 days. To generate hepatocyte like cells from H9, H1 and IPS cells, the following changes were made to the hepatic specification media. […] All cytokines were human and purchased from R&D Systems, unless stated otherwise. EB and monolayer cultures were maintained in a 5% CO2, 5% O2, 90% N2 environment. Aggregation cultures were maintained in a 5% CO2 ambient air environment.
Total RNA was prepared with RNAqueous® Micro Kit (Ambion) and treated with RNase-free DNase (Ambion). 500 ng to 1 μg RNA was reverse transcribed into cDNA using random hexamers and Oligo(dT) with Superscript® III Reverse Transcriptase (Invitrogen). qPCR was performed on a MasterCycler® ep realplex (Eppendorf) using A QuentiFast SYBR Green PCR Kit (Quiagen) as described previously^45. Expression levels were normalized to the housekeeping gene TATA box binding protein (TBP). […] Total human adult and fetal liver RNA was purchased from Clontech. Two primary hepatocyte RNA samples were provided by Dr Stephen C. […] Two primary hepatocyte samples were cultured for two day and were harvested.

Data set [3] has the same test system. The data set is described as follows: Intracellular flow cytometry of AFP+ and ALB+ cells in hepatic aggregates. The data set is classed as cell-based, human. To be noted: day 44 aggregates. Here is the method: The proportion of ALB positive cells, on the other hand, was higher in the cAMP-treated population (89.5+/−5.6% vs 82.3+/−3.0%, P<0.05 (mean+/−SD, n=3).
Flow cytometric analyses were performed as described previously^45. For cell surface markers, staining was carried out in PBS with 10% FCS. For intracellular proteins, staining was performed on cells fixed with 4% paraformaldehyde (Electron Microscopy Science, Hatfield, PA, USA) in PBS. Cells were permeabilized with 90% ice-cold methanol for 20 minutes for Sox17 and FoxA2 staining as previously described^45. Albumin and alpha-fetoprotein staining was performed in PBS with 10% FCS and 0.5% saponin (Sigma). Stained cells were analyzed using an LSRII flow cytometer (BD).

Setting [4] is: hepatic aggregates, day 32 to 44.
[5] abbreviates: hepatic aggregates, day 32 to 44, average.

“And” between values parts separate entries of the source, which are not always exact repeats. Equal entries are not always repeated. Where two headings read alike, the source gives them in different places.

As to `Nc1ncnc2c1nc(Br)n2[C@@H]1O[C@@H]2COP(=O)(O)O[C@H]2[C@H]1O` [8-Br-cAMP, 8-bromoadenosine-3′5″-cyclic monophosphate], the albumin secretion result in data set [1] is given as “not impacted”. In addition, in data set [2], the “expression of CYP1A2 and CYP3A4” value is on record as “little increase”; the “increase in expression of CYP1A2” value came to 18 fold; the “increase in expression of CYP2B6” value is on record as 4.7 fold; the “increase in expression of CYP3A4” value is 2.5 fold. In data set [2] (HES2-derived aggregates, day 44, relative to non-treated), the “induction of UGT1A1 expression” value was found to be 11 fold. The “expression of PGC1-a” value in data set [2] (hESC-derived insulin positive pancreatic cells) is recorded as “not induced”. For the same compound, in data set [2] (setting [4]), the “expression level of AFP” value is recorded as “downregulated”, the “expression level of ALB” value was “downregulated” and the “expression of PGC1-a” value was 15 fold. Moreover, in data set [2] (setting [5]), the “expression of G6P” value was found to be 25 fold and the “expression of TAT” value stood at 33 fold. Further, in data set [3], the “proportion of AFP+ cells” value is 26% and 34.5+/−12.4%; the “proportion of ALB+ cells” value is 89.5+/−5.6%.
